The values that follow come from patent publication US12691101B2, “Compound and method for preventing or treating of respiratory diseases comprising the same as an active ingredient” (YONSEI UNIVERSITY, UNIVERSITY - INDUSTRY FOUNDATION (UIF), priority 2019, dated 2026).

The structures appear in SMILES notation.

The subject of one test is HBE cells.
Assay: not given
The following applies: IL-13-treated HBE cells; cited from earlier work.
On to `Cn1nc(COc2cccc(F)c2)c2c1CCN(C(=O)Nc1ccc(Cl)cc1)C2` [PDSinh-A01], for which the ASL depth result is recorded as “significantly increased”.

For a further test, the target named is T1, human wild-type (WT)-pendrin (Homo sapiens, UniProt O43511).
T1 construct: expressed in transfected cells
T1 sequence (O43511 1-780): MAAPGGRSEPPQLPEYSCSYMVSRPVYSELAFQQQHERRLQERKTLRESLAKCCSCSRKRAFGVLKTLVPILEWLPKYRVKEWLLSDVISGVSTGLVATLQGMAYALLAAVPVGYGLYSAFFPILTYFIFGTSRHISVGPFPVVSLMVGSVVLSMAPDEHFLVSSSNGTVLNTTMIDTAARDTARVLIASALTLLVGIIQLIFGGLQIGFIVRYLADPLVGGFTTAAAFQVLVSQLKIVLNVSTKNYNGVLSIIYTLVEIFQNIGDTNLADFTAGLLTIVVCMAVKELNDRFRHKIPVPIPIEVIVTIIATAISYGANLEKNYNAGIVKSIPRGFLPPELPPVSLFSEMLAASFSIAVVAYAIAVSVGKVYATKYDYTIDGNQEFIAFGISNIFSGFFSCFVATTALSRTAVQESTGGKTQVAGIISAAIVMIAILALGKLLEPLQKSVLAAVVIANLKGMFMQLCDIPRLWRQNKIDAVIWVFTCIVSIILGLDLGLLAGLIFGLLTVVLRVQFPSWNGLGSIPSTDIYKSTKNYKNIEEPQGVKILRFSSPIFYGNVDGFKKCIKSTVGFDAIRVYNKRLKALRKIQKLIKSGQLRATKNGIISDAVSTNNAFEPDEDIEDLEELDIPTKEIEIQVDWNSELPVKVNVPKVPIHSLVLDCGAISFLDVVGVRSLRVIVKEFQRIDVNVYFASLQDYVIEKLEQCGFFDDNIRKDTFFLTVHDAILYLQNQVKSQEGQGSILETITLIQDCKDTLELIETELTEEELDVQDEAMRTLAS
The test is described as follows: Pendrin-mediated Cl^−/I^− exchange activity, YFP fluorescence in CHO-K1 cells. The class given is cell-based. To be noted: 30 μM.
Take `O=C(O)C(=Cc1ccco1)NC(=O)c1ccc(Br)cc1` [G21, 2-(4-Bromobenzamido)-3-(furan-2-yl)acrylate]: the “Pendrin inhibitory activity at 30 μM (%)” value is reported as 4.1%.

Staying with this test, now noted: CHO-K1, 30 μM; read-out: Pendrin inhibitory activity at 30 μM (%).
`O=C1OC(c2ccc3c(c2)OCO3)=NC1=Cc1ccc(N2CCCCC2)s1` [F100, 2-(Benzo[d][1,3]dioxoyl-5-yl)-4-((5-(piperidin-1-yl)thiophen-2-yl)methylene)oxazol-5(4H)-one]: the inhibition at 30 µM amounted to 2.5%.

`CCC(/C=C1\Sc2ccc(OC)cc2N1CC)=C1N=C(c2ccccc2)OC1=O` [F68, 4-((Z)-1-(3-ethyl-5-methoxybenzo[d]thiazol-2(3H)-ylidene)butan-2-ylidene)-2-phenyloxazol-5(4H)-one]: the inhibition at 30 µM turned out to be 4.3%. Regarding `O=C1OC(c2ccc(OC(F)F)cc2)=NC1=Cc1cccs1` [F55, 2-(4-(difluoromethoxy)phenyl)-4-(thiophen-2-ylmethylene)oxazol-5(4H)-one], the inhibition at 30 µM is 3.8%. Regarding `CC(C)(C)c1ccc(C2=NC(=Cc3ccco3)C(=O)O2)cc1` [F38, 2-(4-(tert-butyl)phenyl)-4-(furan-2-ylmethylene)oxazol-5 (4H)-one], the inhibition at 30 µM came out at 92.6%. Still for that read-out and setting: in the case of `CCCCOc1ccc(C(=O)NC(=Cc2ccc[nH]2)C(=O)O)cc1` [G41, 2-(4-Butoxybenzamido)-3-(1H-pyrrol-2-yl)acrylate] it was 25.1%. As to `O=C1OC(c2ccc(Oc3ccccc3)cc2)=NC1=Cc1cccs1` [F95, 2-(4-Phenoxyphenyl)-4-(thiophen-2-ylmethylene)oxazol-5(4H)-one], the inhibition at 30 µM came to 3.8%.

Turning to `CC(C)(C#N)c1ccc(C2=NC(=Cc3ccc[nH]3)C(=O)O2)cc1` [F148], the inhibition at 30 µM worked out at 100%. On the same count and under the same terms, in the case of `O=C1OC(c2ccc(Cl)c([N+](=O)[O-])c2)=NC1=Cc1cccs1` [F91, 2-(4-Chloro-3-nitrophenyl)-4-(thiophen-2-ylmethylene)oxazol-5(4H)-one] it was 3.9%. The same measure, in the same setting: then `COc1ccc2[nH]c(=O)c(C=C3N=C(c4ccccc4)OC3=O)cc2c1` [F84, 4-((6-Methoxy-2-oxo-1,2-dihydroquinolin-3-yl)methylene)-2-phenyloxazol-5(4H)-one], with 3.4%. `O=C1OC(c2ccc(Br)cc2)=NC1=Cc1ccsc1` [F51, 2-(4-Bromophenyl)-4-(thiophen-3-ylmethylene)oxazol-5(4H)-one]: the inhibition at 30 µM was found to be 2.7%. In the case of `CC(C)Cc1ccc(C2=NC(=Cc3ccc[nH]3)C(=O)O2)cc1` [F20, 4-((1H-pyrrol-2-yl)methylene)-2-(4-isobutylphenyl)oxazol-5 (4H)-one], the inhibition at 30 µM was determined as 82.9%. On the same count and under the same terms, in the case of `CCCCc1ccc(C2=NC(=Cc3ccco3)C(=O)O2)cc1` [F54, 2-(4-Butylphenyl)-4-(furan-2-ylmethylene)oxazol-5 (4H)-one] it was 2.6%. On the same count and under the same terms, in the case of `Cc1ncsc1C=C(NC(=O)c1cccc2ccccc12)C(=O)O` [G27, 2-(1-Naphthamido)-3-(4-methylthiazol-5-yl)acrylate] it was 2.2%; in that of `O=C1OC(c2ccc(-c3ccccc3)cc2)=NC1=Cc1cccs1` [F37, 2-([1,1′-biphenyl]-4-yl)-4-(thiophen-2-ylmethylene)oxazol-5 (4H)-one], 3.5%; in that of `O=C1OC(Cc2ccc(-c3ccccc3)cc2)=NC1=Cc1ccc[nH]1` [F25, 4-((1H-pyrrol-2-yl)methylene)-2-([1,1′-biphenyl]-4-ylmethyl)oxazol-5(4H)-one], 3.8%.

For `CC(=O)Nc1ccc(C=C2N=C(c3ccc(OC(C)C)cc3)OC2=O)cc1` [F129, N-(4-((2-(4-isopropoxyphenyl)-5-oxooxazol-4(5H)-ylidene)methyl)phenyl)acetamide], the inhibition at 30 µM turned out to be 2.3%. The same measure, in the same setting: then `CC(C)(C)c1ccc(C2=NC(=Cc3ccc(-c4cccc(C(F)(F)F)c4)o3)C(=O)O2)cc1` [F73, 2-(4-(tert-butyl)phenyl)-4-((5-(3-(trifluoromethyl)phenyl)furan-2-yl)methylene)oxazol-5(4H)-one], with 2.9%; and `O=C1OC(c2ccc(OCc3ccccc3)cc2)=NC1=Cc1cccs1` [F109, 2-(4-(Benzyloxy)phenyl)-4-(thiophen-2-ylmethylene)oxazol-5(4H)-one], with 2.4%; and `CC(C)(C)OC(=O)n1cc(C=C2N=C(c3ccc(C(C)(C)C)cc3)OC2=O)c2ccccc21` [F4, tert-butyl 3-((2-(4-(tert-butyl)phenyl)-5-oxooxazol-4(5H)-ylidene)methyl)-1H-indol-1-carboxylate], with 2.6%. Take `CC(=O)n1cc(C=C2N=C(c3ccc(Br)cc3)OC2=O)c2ccccc21` [F72, 4-((1-Acetyl-1H-indol-3-yl)methylene)-2-(4-bromophenyl)oxazol-5(4H)-one]: the inhibition at 30 µM was determined as 2.8%.

Take `O=C1OC(c2ccc(C(F)(F)F)cc2)=NC1=Cc1ccco1` [F48, 4-(Furan-2-ylmethylene)-2-(4-(trifluoromethyl)phenyl)oxazol-5(4H)-one]: the inhibition at 30 µM was 2.4%.

The same test, now with this note: compounds showing pendrin inhibitory activity of 50% or more at 30 μM; read-out: IC50.
The term IC50 denotes the concentration that gives 50% inhibition. As for `CC(C)(C)c1ccc(C2=NC(=Cc3ccco3)C(=O)O2)cc1` [F38, 2-(4-(tert-butyl)phenyl)-4-(furan-2-ylmethylene)oxazol-5 (4H)-one], the IC50 is 3500 ± 270 nM.

Turning to `CC(C)(C#N)c1ccc(C2=NC(=Cc3ccc[nH]3)C(=O)O2)cc1` [F148], the IC50 came out at 200 ± 60 nM. On the same count and under the same terms, then `CC(C)Cc1ccc(C2=NC(=Cc3ccc[nH]3)C(=O)O2)cc1` [F20, 4-((1H-pyrrol-2-yl)methylene)-2-(4-isobutylphenyl)oxazol-5 (4H)-one], with 2800 ± 260 nM.
